The text below walks through data of US10857110B2, “Antibacterial compounds” (CONSEJO NACIONAL DE INVESTIGACIONES CIENTÍFICAS Y TÉCNICAS …, priority 2016, dated 2020).

Structures are written as SMILES. ≈ marks a conversion by molar mass, not a printed value. Like-named read-outs stand apart in the source and are kept apart here.

In data set [1] the test system is Bordetella bronchiseptica (9.73H+). The experiment in a line: MIC/MBC antibiotic sensitivity (CLSI). In kind it is cell-based. To be noted: B. bronchiseptica (9.73H+); for MBC: read-out: MBC; for MIC: read-out: MIC. The procedure, abridged:
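Compounds tested by two quantitative methods, MIC and MBC, following CLSI criteria, against reference strains and multiresistant cystic fibrosis sputum isolates. Tobramycin, ceftazidime and meropenem included as comparators.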

Data set [2] relates to Burkholderia cenocepacia (CBC 035). As to the kind of experiment: MIC/MBC antibiotic sensitivity (CLSI). Type of data set: cell-based. To be noted: for MBC: read-out: MBC. The procedure, abridged: (§1)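 Following CLSI, inhibitory and bactericidal endpoints were found by two quantitative methods against Burkholderia cepacia complex isolates from cystic fibrosis patients, chosen from 125 previously profiled isolates for multiresistance, and against S. aureus ATCC6538.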

For data set [3], the system named is Burkholderia multivorans (CBC 015). The experiment in a line: MIC/MBC antibiotic sensitivity (CLSI). Type of data set: cell-based. Conditions: for MBC: read-out: MBC. The procedure, abridged:
as §1

Data set [4] concerns Burkholderia seminalis (CBC 040). The experiment in a line: MIC/MBC antibiotic sensitivity (CLSI). Type of data set: cell-based. In short, it runs like this:
as §1

Data set [5] relates to B. cenacepacia (FQC2524). The experiment in a line: MIC/MBC antibiotic sensitivity (CLSI). In kind it is cell-based, B. cenocepacia. To be noted: Burkholderia cenocepacia. As for the experimental part:
The new compounds of the invention were synthesized following the general method of preparation (Tetrahedron, 2001, 57, 1671-1675), from the reaction between an intermediary compound of the acyl thiourea and HgCl2 in presence of trimethylamine. The products were adequately characterized regarding its chemistry. The antibacterial activity of the new compounds was assayed against two Gram-positive reference strains: Staphylococcus aureus (ATCC6538) and Bacillus cereus (ATCC10876), a fermenting Gram-negative strain: Escherichia coli (ATCC25922), and 26 non-fermenting Gram-negative isolates, including 3 reference strains: Pseudomonas aeruginosa (PAO1), Bordetella bronchiseptica (9.73H+), and Inquilinus limosus (DSM16000), and 23 isolates recovered from patients suffering from cystic fibrosis, including one Achromobacter xylosoxidans isolate, and 22 isolates belonging to the Burkholderia cepacia complex. The later were selected because they presented resistance to a high number of antimicrobial compounds, among a panel of 125 clinical isolates previously analyzed for its resistance against 17 antimicrobial compounds (1,2). The antibiotic sensitivity studies were performed by applying two quantitative methods which allow to determine the minimum inhibitory concentration (MIC) and the minimum bactericidal concentration (MBC).
The compounds obtained in Examples 1 and 2 were assayed against 23 isolates recovered from the sputum of patients suffering from cystic fibrosis being treated at the Sor Maria Ludovica Children Hospital (La Plata, Buenos Aires, Argentina). Nineteen of these isolates were selected for being highly resistant to most of the antimicrobial agents of clinical use from a panel of 125 isolates previously characterized in Martina et al. (1). Reference strains were also included: Gram (+) bacteria: B. cereus and S. aureus, fermenting Gram (−) bacteria: E. coli, and non-fermenting Gram (−) bacteria: Inquilinus limosus (DSM16000), B. bronchiseptica, and Pseudomonas aeruginosa (PAO1). The antibiotic sensitivity studies were performed applying two quantitative methods which allow to determine the minimum inhibitory concentration (MIC) and the minimum bactericidal concentration (MBC) according to the criteria established by the Clinical and Laboratory Standards Institute (CLSI) (4). For comparative purposes, three antibiotics commonly used in the treatment of pulmonary infections in cystic fibrosis patients were included in the study: tobramycin, ceftazidime and meropenem.

Data set [6] can be described thus: Cytotoxicity assay, Trypan blue vital staining. Conditions: human, THP-I monocyte cells; THP-I cells, Trypan Blue; highest drug concentration at which 50% of cells are viable compared with control. In kind it is cell-based, human. As for the experimental part:
(§2) For example, the MIC values for E. coli of the guanidine derivatives disclosed in patent application WO 2004073709 A1 are higher than 1 μg/ml. The guanidine derivatives disclosed by Hensler and colleagues (Hensler, M. E.; Bernstein, G.; Nizet, V.; Nefzi, A., Bioorganic & Medicinal Chemistry Letters 2006, 16, 5073-5079) have MIC values higher than 2.5 μg/ml against E. coli. […] In vitro cytotoxicity assays were performed using the human monocyte cell line THP-I and vital staining with Trypan Blue (3). The IC50 value was defined as the higher drug concentration at which 50% of cells are viable compared with the control. […] The Selectivity Index (SI), defined as the ratio between the IC50 and the MIC for each compound, was calculated. Compound H-BDF has an SI>10, which makes it a good antimicrobial candidate according to the criteria set up by Orme (5).
(§3) For assaying the cytotoxicity of the compounds obtained in Examples 1 and 2, cell viability by vital coloration exclusion with Trypan blue (3). The studies were performed using the monocyte cell line THP-I. The IC50 value was defined as the highest drug concentration at which 50% of the cells are viable as compared with the control.

Data set [7] deals with Burkholderia seminalis (CBC 040). Conditions: reference (1); cited from earlier work.
Data set [8] relates to human monocyte cell line THP-I. As to the kind of experiment: Cytotoxicity assay, Trypan blue vital staining. In kind it is cell-based. Conditions: ratio IC50 / MIC, strain not stated. On the procedure: as §2, §3
Where [9] appears, read: Burkholderia cenocepacia (CBC 035).
The mark [10] stands for this setting: Burkholderia cenocepacia (CBC 035), read-out: MIC.
[11] abbreviates: Burkholderia multivorans (CBC 015).
Where [12] appears, read: Burkholderia multivorans (CBC 015), read-out: MIC.
[13] abbreviates: Burkholderia seminalis (CBC 040).
The mark [14] stands for this setting: Burkholderia seminalis (CBC 040), read-out: MIC.

One may read the MBC as the smallest concentration meeting the test's criterion for killing. Regarding `NC[C@H]1O[C@H](O[C@H]2[C@H](O)[C@@H](O[C@H]3O[C@H](CO)[C@@H](O)[C@H](N)[C@H]3O)[C@H](N)C[C@@H]2N)[C@H](N)C[C@@H]1O` [Tobramucin, tobramycin], in data set [1], the MBC was 62.5 µg/mL (≈ 134 µM). The MIC was 62.5 µg/mL (≈ 134 µM) in data set [1]; > 16 µg/mL in [2] (Burkholderia cenocepacia, Tobramucin, CLSI criteria, B. cenocepacia (CBC 035), read-out: MIC (R/I/S category)); > 16 µg/mL in data set [3] (Burkholderia multivorans, Tobramucin, CLSI criteria, B. multivorans (CBC 015), read-out: MIC (R/I/S category)); > 16 µg/mL in data set [4] (Burkholderia seminalis, Tobramucin, CLSI criteria, B. seminalis (CBC 040), read-out: MIC (R/I/S category)); > 16 µg/mL in data set [5] (Tobramucin, CLSI criteria, read-out: MIC (R/I/S category)).
As a reminder, the IC50 is the concentration that inhibits the measured activity by half. A high value points to lower potency. A word on the melting point: it is the temperature, or range, at which the solid turns liquid. `O=C(NC(=Nc1c(Br)cc(F)cc1Br)Nc1c(F)cc(F)cc1Br)C12CC3CC(CC(C3)C1)C2` [H-DBF, N—(N-(2-bromo-4,6-difluorophenyl)-N′-(2,6-dibromo-4-fluorophenyl)carbamimidoyl) adamantane-1-carboxamide] came in with a melting point of 144 °C. Moreover, in [1], the minimum bactericidal concentration (MBC) stood at 66.5 µg/mL (≈ 100 µM) and the MIC was 16.6 µg/mL (≈ 25 µM). Moreover, in data set [2] (setting [9]), the MBC came out at 132 µg/mL (≈ 199 µM). Also, the MIC in [2] (setting [10]) came out at 66.4 µg/mL (≈ 100 µM). Also, in data set [3] (setting [11]), the minimal bactericidal concentration (MBC) is 132 µg/mL (≈ 199 µM). For the same molecule, the MIC in data set [3] (setting [12]) was 66.4 µg/mL (≈ 100 µM). The MBC in data set [4] (setting [13]) was > 61.2 µg/mL. Moreover, the MIC in [4] (setting [14]) was 61.2 µg/mL (≈ 92.2 µM). Moreover, the minimum bactericidal concentration (MBC) in data set [5] was found to be 31.2 µg/mL (≈ 47.1 µM). Further, in data set [5] (read-out: MIC), the MIC is 15.6 µg/mL (≈ 23.5 µM). The IC50 in [6] is > 132 µg/mL.
Turning to `C[C@@H](O)[C@H]1C(=O)N2C(C(=O)O)=C(S[C@@H]3CN[C@H](C(=O)N(C)C)C3)[C@H](C)[C@H]12` [Meropenem, meropenem], the results for the MBC in [1], in [2] (setting [9]) and in [3] (setting [11]) were < 0.48 µg/mL, 15.6 µg/mL (≈ 40.7 µM) and 3.9 µg/mL (≈ 10.2 µM), respectively. Besides, the MIC is < 0.48 µg/mL in [1]; < 4 µg/mL in [2] (Burkholderia cenocepacia, Meropenem, CLSI criteria, B. cenocepacia (CBC 035), read-out: MIC (R/I/S category)); < 4 µg/mL in data set [3] (Burkholderia multivorans, Meropenem, CLSI criteria, B. multivorans (CBC 015), read-out: MIC (R/I/S category)); > 16 µg/mL in data set [4] (Burkholderia seminalis, Meropenem, CLSI criteria, B. seminalis (CBC 040), read-out: MIC (R/I/S category)); < 4 µg/mL in data set [5] (Meropenem, CLSI criteria, read-out: MIC (R/I/S category)). For the same molecule, in data set [7], the “resistance of the strain to commercial antibiotics” value was “resistant”.
In turn, `O=C(NC(=Nc1c(F)cc(F)cc1Br)Nc1c(F)cc(F)cc1Br)C12CC3CC(CC(C3)C1)C2` [H-BDF, N—(N,N′-bis(2-bromo-4,6-difluorophenyl)carbamimidoyl)adamantane-1-carboxamide] showed a melting point of 174 °C. Moreover, in data set [1], the MBC came to 1.95 µg/mL (≈ 3.23 µM) and the MIC stood at 0.48 µg/mL (≈ 0.796 µM). In [2] (setting [9]), the MBC stood at 3.9 µg/mL (≈ 6.46 µM). For the same molecule, the MIC in data set [2] (setting [10]) came out at 1.95 µg/mL (≈ 3.23 µM). The minimum bactericidal concentration (MBC) in data set [3] (setting [11]) is 3.9 µg/mL (≈ 6.46 µM). Further, the MIC in data set [3] (setting [12]) was found to be 1.95 µg/mL (≈ 3.23 µM). Besides, the MBC in data set [4] (setting [13]) is 7.81 µg/mL (≈ 12.9 µM). The MIC in [4] (setting [14]) was determined as 3.9 µg/mL (≈ 6.46 µM). Moreover, the minimum bactericidal concentration (MBC) in data set [5] was determined as 3.9 µg/mL (≈ 6.46 µM). Further, the MIC in [5] (read-out: MIC) is 0.97 µg/mL (≈ 1.61 µM). Besides, inhibition in data set [6] was half-maximal at 15.2 µg/mL (≈ 25.3 µM) (IC50). For the same molecule, the “Selectivity Index (SI)” value in data set [8] is > 10.
